Results reported in publication PMC7366380, “Discovery of a Potent and Selective Covalent Inhibitor and Activity-Based Probe for the Deubiquitylating Enzyme UCHL1, with Antifibrotic Activity” (Journal of the American Chemical Society, 2020).

Columns and labels:
[1] = FMT assay, cell number (DAPI nuclei count); settings: human
[2] = tested on: primary human bronchial fibroblasts from IPF patients (TGF-β1-triggered αSMA); test: Fibroblast-to-myofibroblast transition (FMT) assay, αSMA by high content analysis

EC50 at 3 days [1]: ~18 µM
SMILES: COC(=O)c1ccc2c(c1)NC(=O)/C2=C(\Nc1ccc(N(C)C(=O)CN2CCN(C)CC2)cc1)c1ccccc1 [nintedanib, reference compound]
IC50 ([2]; Homo sapiens, Fibroblast, 72 h, read-out: αSMA inhibition IC50 (95% CI)): 0.28 µM
αSMA inhibition / transdifferentiation (in words) ([2]; IPF donor fibroblasts, TGF-β1, 3 days, high content imaging): inhibit transdifferentiation
